In US11771694B2, “Arylamide compounds for treatment and prevention of viral infections” (priority 2020, dated 2023):
In brackets after ≈: the same amount, converted by molar mass. Like-named read-outs stand apart in the source and are kept apart here.

Experiments:
[1] = system: dextran sulfate sodium (DSS) induced colitis; assay: Mouse DSS colitis model; assay type: in vivo, mice; settings: mouse, in vivo
[2] = system: Entero. faecalis; assay: Broth microdilution MIC; assay type: cell-based; settings: Enterococcus faecalis
[3] = system: Entero. faecium (VRE); assay: Broth microdilution MIC; assay type: cell-based; settings: Enterococcus faecium
[4] = system: Staph. aureus (MRSA); assay: Broth microdilution MIC; assay type: cell-based; settings: Staphylococcus aureus
[5] = system: Staph. epidermidis; assay: Broth microdilution MIC; assay type: cell-based; settings: Staphylococcus epidermidis
[6] = system: Staph. saprophyticus; assay: Broth microdilution MIC; assay type: cell-based; settings: Staphylococcus saprophyticus
[7] = system: Staph. spp. coagulase-; assay: Broth microdilution MIC; assay type: cell-based
[8] = system: Strept. agalactiae; assay: Broth microdilution MIC; assay type: cell-based; settings: Streptococcus agalactiae
[9] = system: Strept. pneumoniae; assay: Broth microdilution MIC; assay type: cell-based; settings: Streptococcus pneumoniae
[10] = system: Strept. pyogenes; assay: Broth microdilution MIC; assay type: cell-based; settings: Streptococcus pyogenes
[11] = system: Strept. viridians; assay: Broth microdilution MIC; assay type: cell-based
[12] = system: Citrobacter fruendi; assay: Broth microdilution MIC; assay type: cell-based
[13] = system: Citrobacter koseri; assay: Broth microdilution MIC; assay type: cell-based
[14] = system: Enterobacter cloacae; assay: Broth microdilution MIC; assay type: cell-based
[15] = system: Escherichia coli; assay: Broth microdilution MIC; assay type: cell-based
[16] = system: Klebsiella oxtoca; assay: Broth microdilution MIC; assay type: cell-based
[17] = system: Klebsiella pneumoniae; assay: Broth microdilution MIC; assay type: cell-based
[18] = system: Morganella morganii; assay: Broth microdilution MIC; assay type: cell-based
[19] = system: Proteus mirabilis; assay: Broth microdilution MIC; assay type: cell-based
[20] = system: Proteus vulgaris; assay: Broth microdilution MIC; assay type: cell-based
[21] = system: Providencia stuartii; assay: Broth microdilution MIC; assay type: cell-based
[22] = system: Pseud. aeruginosa; assay: Broth microdilution MIC; assay type: cell-based; settings: Pseudomonas aeruginosa
[23] = system: Serratia marcescens; assay: Broth microdilution MIC; assay type: cell-based
[24] = system: Stenotrophomonas maltophilia; assay: Broth microdilution MIC; assay type: cell-based
[25] = system: Haemophilus influenzae; assay: Broth microdilution MIC; assay type: cell-based
[26] = system: stationary phase cultures of MSSA and MRSA; assay: Time-kill against stationary phase cultures of MSSA and MRSA; assay type: cell-based, Staph. aureus; settings: up to 10× the MIC; data not shown
[27] = system: Acinetobacter spp.; assay: Broth microdilution MIC; assay type: cell-based; settings: 2-3 isolates/organism
[28] = system: SARS-CoV-2; assay type: cell-based; settings: Calu-3; MOI 0.05; 24 hpi
[29] = 2-3 isolates/organism, read-out: MIC

Q: With Nc1ccc(O)c(C(=O)O)c1 [5-ASA, reference compound] as the compound, how does the “mean reduction in IL-1β in distal colon tissue” value [1] read?
A: 33%

Q: And the “mean reduction in IL-6 in distal colon tissue” value [1]?
A: 86%

Q: Which MIC [2] does the source give for CN[C@H](CC(C)C)C(=O)N[C@H]1C(=O)N[C@@H](CC(N)=O)C(=O)N[C@H]2C(=O)N[C@H]3C(=O)N[C@H](C(=O)N[C@H](C(=O)O)c4cc(O)cc(O)c4-c4cc3ccc4O)[C@H](O)c3ccc(c(Cl)c3)Oc3cc2cc(c3O[C@@H]2O[C@H](CO)[C@@H](O)[C@H](O)[C@H]2O[C@H]2C[C@](C)(N)[C@H](O)[C@H](C)O2)Oc2ccc(cc2Cl)[C@H]1O [Vancomycin] here?
A: 1 µg/mL (≈ 0.69 µM)

Q: And the MIC ([3]; VRE)?
A: > 128 µg/mL

Q: What about the MIC ([4]; MRSA) of the same compound?
A: 0.5 to 1 µg/mL (≈ 0.345 to 0.69 µM)

Q: And the MIC [5]?
A: 2 µg/mL (≈ 1.38 µM)

Q: And the MIC [6]?
A: 1 to 2 µg/mL (≈ 0.69 to 1.38 µM)

Q: And the MIC [7]?
A: 1 to 2 µg/mL (≈ 0.69 to 1.38 µM)

Q: What about the MIC [8] of the same compound?
A: 0.5 µg/mL (≈ 0.345 µM)

Q: What about the MIC [9] of the same compound?
A: 0.5 µg/mL (≈ 0.345 µM)

Q: What about the MIC [10] of the same compound?
A: 0.5 µg/mL (≈ 0.345 µM)

Q: And the MIC [11]?
A: 0.5 to 1 µg/mL (≈ 0.345 to 0.69 µM)

Q: What about the MIC ([12]; Citrobacter) of the same compound?
A: > 128 µg/mL

Q: And the MIC [13]?
A: > 128 µg/mL

Q: And the MIC [14]?
A: > 128 µg/mL

Q: And the MIC [15]?
A: > 128 µg/mL

Q: What about the MIC ([16]; Klebsiella) of the same compound?
A: > 128 µg/mL

Q: And the MIC [17]?
A: > 128 µg/mL

Q: And the MIC [18]?
A: > 128 µg/mL

Q: What about the MIC [19] of the same compound?
A: > 128 µg/mL

Q: What about the MIC [20] of the same compound?
A: > 128 µg/mL

Q: What about the MIC [21] of the same compound?
A: > 128 µg/mL

Q: What about the MIC [22] of the same compound?
A: > 128 µg/mL

Q: What about the MIC [23] of the same compound?
A: > 128 µg/mL

Q: What about the MIC [24] of the same compound?
A: 32 to 128 µg/mL (≈ 22.1 to 88.3 µM)

Q: And the MIC [25]?
A: 128 µg/mL (≈ 88.3 µM)

Q: CCCCCCCCCC(=O)N[C@@H](Cc1c[nH]c2ccccc12)C(=O)N[C@H](CC(N)=O)C(=O)N[C@@H](CC(=O)O)C(=O)N[C@@H]1C(=O)NCC(=O)N[C@@H](CCCN)C(=O)N[C@@H](CC(=O)O)C(=O)N[C@H](C)C(=O)N[C@@H](CC(=O)O)C(=O)NCC(=O)N[C@H](CO)C(=O)N[C@@H]([C@H](C)CC(=O)O)C(=O)N[C@@H](CC(=O)c2ccccc2N)C(=O)O[C@@H]1C [Daptomycin, reference compound] was tested. Which “antimicrobial activity against stationary phase cultures” value [26] did it give?
A: little antimicrobial activity

Q: With CC(C)(O/N=C(\C(=O)N[C@@H]1C(=O)N2C(C(=O)[O-])=C(C[n+]3ccccc3)CS[C@H]12)c1csc(N)n1)C(=O)O [Ceftazidime] as the compound, how does the MIC [5] read?
A: 16 to 32 µg/mL (≈ 29.3 to 58.5 µM)

Q: And the MIC ([16]; Klebsiella)?
A: 0.06 to 0.12 µg/mL (≈ 0.11 to 0.22 µM)

Q: What about the MIC [20] of the same compound?
A: 0.12 µg/mL (≈ 0.22 µM)

Q: And the MIC [21]?
A: 0.12 to 64 µg/mL (≈ 0.22 to 117 µM)

Q: CC(=O)NC[C@H]1CN(c2ccc(N3CCOCC3)c(F)c2)C(=O)O1 [Linezolid] was tested. Which MIC ([2]; Entero. faecalis, 2-3 isolates/organism, read-out: MIC) did it give?
A: 1 to 2 µg/mL (≈ 2.96 to 5.93 µM)

Q: What about the MIC ([3]; Entero. faecium (VRE), 2-3 isolates/organism, read-out: MIC) of the same compound?
A: 1 to 2 µg/mL (≈ 2.96 to 5.93 µM)

Q: What about the MIC ([4]; Staph. aureus (MRSA), 2-3 isolates/organism, read-out: MIC) of the same compound?
A: 1 to 2 µg/mL (≈ 2.96 to 5.93 µM)

Q: What about the MIC ([5]; Staph. epidermidis, 2-3 isolates/organism, read-out: MIC) of the same compound?
A: 0.5 to 1 µg/mL (≈ 1.48 to 2.96 µM)

Q: What about the MIC ([6]; Staph. saprophyticus, 2-3 isolates/organism, read-out: MIC) of the same compound?
A: 1 to 2 µg/mL (≈ 2.96 to 5.93 µM)

Q: What about the MIC ([7]; Staph. spp. coagulase-, 2-3 isolates/organism, read-out: MIC) of the same compound?
A: 1 µg/mL (≈ 2.96 µM)

Q: What about the MIC ([8]; Strept. agalactiae, 2-3 isolates/organism, read-out: MIC) of the same compound?
A: 1 µg/mL (≈ 2.96 µM)

Q: And the MIC ([9]; Strept. pneumoniae, 2-3 isolates/organism, read-out: MIC)?
A: 1 µg/mL (≈ 2.96 µM)

Q: And the MIC ([10]; Strept. pyogenes, 2-3 isolates/organism, read-out: MIC)?
A: 1 µg/mL (≈ 2.96 µM)

Q: What about the MIC ([11]; Strept. viridians, 2-3 isolates/organism, read-out: MIC) of the same compound?
A: 1 µg/mL (≈ 2.96 µM)

Q: And the MIC ([12]; Citrobacter fruendi, 2-3 isolates/organism, read-out: MIC)?
A: > 16 µg/mL

Q: What about the MIC [13, 29] of the same compound?
A: > 16 µg/mL

Q: What about the MIC [14, 29] of the same compound?
A: > 16 µg/mL

Q: And the MIC [15, 29]?
A: > 16 µg/mL

Q: What about the MIC ([16]; Klebsiella oxtoca, 2-3 isolates/organism, read-out: MIC) of the same compound?
A: > 16 µg/mL

Q: And the MIC [17, 29]?
A: > 16 µg/mL

Q: What about the MIC [18, 29] of the same compound?
A: > 16 µg/mL

Q: And the MIC [19, 29]?
A: > 16 µg/mL

Q: And the MIC [20, 29]?
A: > 16 µg/mL

Q: And the MIC [21, 29]?
A: > 16 µg/mL

Q: What about the MIC [27] of the same compound?
A: > 16 µg/mL

Q: And the MIC ([22]; Pseud. aeruginosa, 2-3 isolates/organism, read-out: MIC)?
A: > 16 µg/mL

Q: What about the MIC [23, 29] of the same compound?
A: > 16 µg/mL

Q: What about the MIC [24, 29] of the same compound?
A: > 16 µg/mL

Q: Which “inhibition of infectious titer, each drug alone” value [28] does the source give for NC(=O)c1nc(F)c[nH]c1=O [favipiravir, reference compound] here?
A: ≤ 80%
